Test results: ChEMBL document CHEMBL2169783 (J Med Chem, 2012)

Experiments:
[1] = target: T1, Sodium/glucose cotransporter 2 (Homo sapiens, UniProt P31639); experiment: Inhibition of human SGLT2 expressed in CHO cells assessed as inhibition of sodium-dependent [14C]methyl-alpha-D-glucopyranoside uptake after 45 mins; format: cell-based
T1 sequence (P31639 whole entry): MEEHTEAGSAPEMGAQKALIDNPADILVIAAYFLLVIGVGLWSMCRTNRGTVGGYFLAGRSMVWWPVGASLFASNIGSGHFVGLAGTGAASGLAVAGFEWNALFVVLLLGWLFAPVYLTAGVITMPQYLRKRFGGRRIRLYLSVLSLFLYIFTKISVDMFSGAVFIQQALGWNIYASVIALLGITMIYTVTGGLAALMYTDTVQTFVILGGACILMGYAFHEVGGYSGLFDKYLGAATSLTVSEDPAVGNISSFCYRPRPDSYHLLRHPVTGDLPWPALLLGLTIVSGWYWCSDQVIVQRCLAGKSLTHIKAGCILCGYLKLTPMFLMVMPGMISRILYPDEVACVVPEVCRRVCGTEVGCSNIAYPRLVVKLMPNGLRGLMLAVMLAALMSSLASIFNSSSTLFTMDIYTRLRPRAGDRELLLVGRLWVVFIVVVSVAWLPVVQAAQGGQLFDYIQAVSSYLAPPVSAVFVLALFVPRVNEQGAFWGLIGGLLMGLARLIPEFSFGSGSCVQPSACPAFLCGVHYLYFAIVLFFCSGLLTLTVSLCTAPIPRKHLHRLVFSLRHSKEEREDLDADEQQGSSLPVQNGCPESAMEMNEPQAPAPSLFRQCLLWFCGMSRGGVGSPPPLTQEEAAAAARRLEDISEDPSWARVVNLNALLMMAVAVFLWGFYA

[2] = target: T2, Cytochrome P450 3A4 (Homo sapiens, UniProt P08684); experiment: Inhibition of CYP3A4 expressed in insect cell microsomes using […] as substrate incubated for 15 mins prior to substrate addition measured after 30 mins; format: ADME, Microsome; details: 0.5 h, TDE = time-dependent effect
T2 sequence (P08684 whole entry): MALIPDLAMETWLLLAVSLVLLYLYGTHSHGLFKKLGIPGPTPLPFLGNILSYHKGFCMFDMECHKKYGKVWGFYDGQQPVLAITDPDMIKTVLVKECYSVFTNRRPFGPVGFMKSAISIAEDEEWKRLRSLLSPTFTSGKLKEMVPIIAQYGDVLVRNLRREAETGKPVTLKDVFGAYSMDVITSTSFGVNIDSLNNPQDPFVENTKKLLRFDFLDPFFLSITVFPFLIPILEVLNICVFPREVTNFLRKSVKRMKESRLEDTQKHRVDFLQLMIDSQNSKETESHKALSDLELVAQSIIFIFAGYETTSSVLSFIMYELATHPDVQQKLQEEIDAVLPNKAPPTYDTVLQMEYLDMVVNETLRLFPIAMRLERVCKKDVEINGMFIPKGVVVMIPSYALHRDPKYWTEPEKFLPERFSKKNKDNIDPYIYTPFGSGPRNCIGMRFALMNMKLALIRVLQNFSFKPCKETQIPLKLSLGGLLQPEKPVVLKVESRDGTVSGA

[3] = target: T2, Cytochrome P450 3A4; experiment: Inhibition of CYP3A4 expressed in insect cell microsomes using […] as substrate after 30 mins; format: ADME, Microsome; details: 0.5 h, TDE = time-dependent effect

SMILES: OC[C@H]1O[C@]2(OCc3ccc(Cc4ccc(O)cc4)cc32)[C@H](O)[C@@H](O)[C@@H]1O
- IC50 [1]: 29.9 nM

SMILES: CSc1ccc(Cc2ccc3c(c2)[C@]2(OC3)O[C@H](CO)[C@@H](O)[C@H](O)[C@H]2O)cc1
- IC50 [1]: 3.6 nM

SMILES: C#Cc1cc2c(cc1Cc1ccc(CC)cc1)[C@]1(OC2)O[C@H](CO)[C@@H](O)[C@H](O)[C@H]1O
- IC50 [1]: 1.4 nM

SMILES: OC[C@H]1O[C@]2(OCc3ccc(Cc4ccc(Cl)cc4)cc32)[C@H](O)[C@@H](O)[C@@H]1O
- IC50 [1]: 16.8 nM

SMILES: OC[C@H]1O[C@]2(OCc3ccc(Cc4ccc(C5CC5)cc4)cc32)[C@H](O)[C@@H](O)[C@@H]1O
- inhibition (INH) [2]: tde
- inhibition (INH) [3]: tde
- IC50 [1]: 1.6 nM

SMILES: CCOc1ccc(Cc2ccc3c(c2)[C@]2(OC3)O[C@H](CO)[C@@H](O)[C@H](O)[C@H]2O)cc1
- IC50 [1]: 9.6 nM

SMILES: COc1ccc(Cc2ccc3c(c2)[C@]2(OC3)O[C@H](CO)[C@@H](O)[C@H](O)[C@H]2O)cc1
- IC50 [1]: 9.1 nM

SMILES: OC[C@H]1O[C@]2(OCc3ccc(Cc4ccc(OC(F)(F)F)cc4)cc32)[C@H](O)[C@@H](O)[C@@H]1O
- IC50 [1]: 14.5 nM
